Values quoted from earlier work, collected in PMC4264749, “Phlebotomy Treatment for Elimination of Perfluoroalkyl Acids in a Highly Exposed Family: A Retrospective Case-Series” (PLoS ONE, 2014).

Conditions: cited from earlier work

cholestyramine
facilitating removal / elimination of PFAAs: successful | PFOA levels in users compared to non-users (individuals using it for other medical reasons, West Virginia drinking water contamination): significantly lower
